Experiments:
[1] = target: T1, 5-hydroxytryptamine receptor 1A (Mus musculus, UniProt Q64264); assay: Binding affinity against 5-hydroxytryptamine 1A receptor
T1 sequence (Q64264 whole entry): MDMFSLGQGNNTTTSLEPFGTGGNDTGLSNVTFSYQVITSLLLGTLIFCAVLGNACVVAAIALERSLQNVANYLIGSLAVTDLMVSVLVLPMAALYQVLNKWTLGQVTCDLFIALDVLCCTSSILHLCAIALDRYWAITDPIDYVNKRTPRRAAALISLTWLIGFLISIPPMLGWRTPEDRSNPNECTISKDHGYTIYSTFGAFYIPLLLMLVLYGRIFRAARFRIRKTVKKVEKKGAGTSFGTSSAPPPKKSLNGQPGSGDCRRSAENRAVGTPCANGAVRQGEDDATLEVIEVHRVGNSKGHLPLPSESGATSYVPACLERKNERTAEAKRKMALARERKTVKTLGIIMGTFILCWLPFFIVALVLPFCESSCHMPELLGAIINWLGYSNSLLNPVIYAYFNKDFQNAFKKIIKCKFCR

[2] = target: Serotonin 3 (5-HT3) receptor (Rattus norvegicus) (UniProt P35563+Q9JJ16); assay: Agonist activity against 2-methyl-5-HT induced bradycardia (von Bezold-Jarisch (B-J) reflex) in anesthetized rats; assay type: functional
[3] = target: T2, Alpha-1A adrenergic receptor (Homo sapiens, UniProt P35348); assay: Binding affinity against Alpha-1A adrenergic receptor
T2 sequence (P35348 whole entry): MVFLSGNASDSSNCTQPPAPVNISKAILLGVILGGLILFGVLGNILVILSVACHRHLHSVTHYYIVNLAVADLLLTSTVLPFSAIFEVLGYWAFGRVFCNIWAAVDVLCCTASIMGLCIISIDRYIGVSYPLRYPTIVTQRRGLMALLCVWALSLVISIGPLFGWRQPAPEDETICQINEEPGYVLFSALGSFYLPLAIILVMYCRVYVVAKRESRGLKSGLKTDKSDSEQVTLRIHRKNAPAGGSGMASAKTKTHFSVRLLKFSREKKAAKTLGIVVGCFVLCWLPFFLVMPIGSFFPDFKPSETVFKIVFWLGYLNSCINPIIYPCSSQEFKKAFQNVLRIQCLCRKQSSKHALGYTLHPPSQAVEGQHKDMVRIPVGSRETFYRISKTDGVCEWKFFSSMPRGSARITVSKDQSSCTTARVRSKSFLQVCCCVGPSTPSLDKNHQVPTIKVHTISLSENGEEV

[4] = target: T3, Muscarinic acetylcholine receptor M2 (Homo sapiens, UniProt P08172); assay: Binding affinity against Muscarinic M2 receptor
T3 sequence (P08172 whole entry): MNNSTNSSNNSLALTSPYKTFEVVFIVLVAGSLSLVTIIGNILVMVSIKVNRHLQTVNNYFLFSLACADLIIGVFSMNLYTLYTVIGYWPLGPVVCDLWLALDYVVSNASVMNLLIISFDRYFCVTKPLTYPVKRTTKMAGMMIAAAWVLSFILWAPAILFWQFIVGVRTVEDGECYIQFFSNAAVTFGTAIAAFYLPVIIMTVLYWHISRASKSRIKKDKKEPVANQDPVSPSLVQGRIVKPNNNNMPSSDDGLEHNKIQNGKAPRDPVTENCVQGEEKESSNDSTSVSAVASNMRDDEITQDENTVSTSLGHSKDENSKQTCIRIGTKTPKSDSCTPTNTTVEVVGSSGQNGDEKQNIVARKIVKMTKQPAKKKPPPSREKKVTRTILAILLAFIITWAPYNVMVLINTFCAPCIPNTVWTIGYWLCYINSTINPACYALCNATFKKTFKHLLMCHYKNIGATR

Rattus norvegicus = organism: Rattus norvegicus; assay: Tested for effective concentration against 5-HT mediated depolarization of isolated rat vagus nerve; assay type: functional
[5] = target: T4, Serotonin 3 (5-HT3) receptor (Rattus norvegicus, UniProt P35563+Q9JJ16); assay: Binding affinity against 5-Hydroxytryptamine 3 receptor; assay type: protein-complex assay
T4 sequence (P35563 whole entry): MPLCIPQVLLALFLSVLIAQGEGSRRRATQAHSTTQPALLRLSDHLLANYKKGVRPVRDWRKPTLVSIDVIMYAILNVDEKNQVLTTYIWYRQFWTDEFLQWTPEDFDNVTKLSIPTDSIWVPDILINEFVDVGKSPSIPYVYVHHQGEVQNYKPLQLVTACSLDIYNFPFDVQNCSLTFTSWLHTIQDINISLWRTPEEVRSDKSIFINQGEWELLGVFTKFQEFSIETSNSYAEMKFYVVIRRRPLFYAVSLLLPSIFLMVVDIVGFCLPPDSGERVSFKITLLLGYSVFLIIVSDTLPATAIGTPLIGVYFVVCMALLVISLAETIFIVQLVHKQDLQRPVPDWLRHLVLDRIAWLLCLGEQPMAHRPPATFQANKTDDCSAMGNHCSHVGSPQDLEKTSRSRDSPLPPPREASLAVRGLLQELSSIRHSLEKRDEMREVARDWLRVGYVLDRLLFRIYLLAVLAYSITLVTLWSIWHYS
T4 sequence (Q9JJ16 whole entry): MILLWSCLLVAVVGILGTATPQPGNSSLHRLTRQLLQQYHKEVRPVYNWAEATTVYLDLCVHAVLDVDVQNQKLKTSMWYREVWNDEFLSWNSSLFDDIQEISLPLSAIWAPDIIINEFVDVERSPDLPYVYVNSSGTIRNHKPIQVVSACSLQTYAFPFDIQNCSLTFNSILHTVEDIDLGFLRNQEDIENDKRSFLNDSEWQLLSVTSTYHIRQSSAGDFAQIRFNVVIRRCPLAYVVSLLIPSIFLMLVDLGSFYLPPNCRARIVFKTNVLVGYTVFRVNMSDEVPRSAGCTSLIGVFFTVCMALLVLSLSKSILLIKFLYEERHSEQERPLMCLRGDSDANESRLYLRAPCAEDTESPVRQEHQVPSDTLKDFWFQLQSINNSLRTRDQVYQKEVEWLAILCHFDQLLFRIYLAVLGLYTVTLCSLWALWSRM

[6] = target: T5, 5-hydroxytryptamine receptor 2C (Homo sapiens, UniProt P28335); assay: Binding affinity against 5-hydroxytryptamine 2C receptor
T5 sequence (P28335 whole entry): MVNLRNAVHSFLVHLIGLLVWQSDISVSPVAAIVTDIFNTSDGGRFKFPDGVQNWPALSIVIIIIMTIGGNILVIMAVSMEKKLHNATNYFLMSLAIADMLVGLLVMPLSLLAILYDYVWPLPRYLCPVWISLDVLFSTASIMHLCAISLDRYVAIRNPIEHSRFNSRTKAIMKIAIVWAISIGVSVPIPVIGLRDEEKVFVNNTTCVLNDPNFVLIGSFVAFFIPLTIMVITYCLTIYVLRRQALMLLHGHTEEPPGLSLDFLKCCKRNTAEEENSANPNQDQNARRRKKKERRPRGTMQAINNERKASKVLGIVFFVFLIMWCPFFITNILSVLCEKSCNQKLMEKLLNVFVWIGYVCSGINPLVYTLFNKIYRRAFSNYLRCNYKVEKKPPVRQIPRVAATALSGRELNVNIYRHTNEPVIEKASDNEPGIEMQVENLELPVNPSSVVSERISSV

`Cn1cc(C(=O)C(=O)N[C@@H]2CN3CCC2CC3)c2ccccc21` gave a Ki [1] of over 100 µM, an ED50 [2] of 8.5 µg/kg and a Ki [3] of 25.1 µM. The Ki [4] was 50.1 µM, the EC50 (Rattus norvegicus) was 2.14 µM and the Ki [5] was 0.0126 µM. For the same compound, the Ki [6] was 12.6 µM.

In the case of `Cn1cc(C(=O)C(=O)N[C@H]2CN3CCC2CC3)c2ccccc21`, the Ki [1] is reported as over 100 µM, the ED50 [2] is reported as 0.6 µg/kg and the Ki [3] is reported as over 10 µM. The Ki [4] was 50.1 µM, the EC50 (Rattus norvegicus) was 0.0355 µM and the Ki [5] was 0.000251 µM. It also gave a Ki [6] of 15.8 µM.

From ChEMBL document CHEMBL1128795, “N-(Quinuclidin-3-yl)-2-(1-methyl-1H-indol-3-yl)-2-oxo-acetamide: a high affinity 5-HT3 receptor partial agonist” (Bioorg Med Chem Lett, 1995)
